Assays:
[1] = test system: AKT and ERK phosphorylation in MDA-MB-231 cells; experiment: Western blotting of pAKT and pERK; type: cell-based, human; conditions: MDA-MB-231, IC50-48 for 3 h, EGF 100 ng/ml 10 min, densitometry
Experimental: To determine the effect of the C14 and P8 compounds over the protein effectors of K-Ras4B, AKT, and ERK, immunoblotting assays were conducted with specific antibodies. In brief, MCF-10A, MDA-MB-231, and MDA-MB-231RR cells were plated in 100-mm culture dishes until 80% of confluents. Cell adhesion was allowed for 24 h. […] After pre-treatment, cells were stimulated with 100 ng/ml EGF for 10 minutes to promote AKT and ERK activation. Later, the whole-cell extracts were obtained by the lysis of the cells (Cytoskeleton) in the presence of proteases and phosphatase inhibitors. Subsequently, the protein extracts were incubated at 4°C for 40 minutes to be clarified by centrifugation for 10 minutes at 14,000 rpm, at 4°C. The protein concentration of each extract was determined by using the Precision Red Advanced Protein Assay Reagent (Cytoskeleton) Then, approximately 25 μg of protein extract was electrophoresed in 10% sodium dodecyl sulfate–polyacrylamide gel electrophoresis (SDS-PAGE) and transferred to polyvinylidene fluoride (PVDF) membranes (Millipore, Billerica, MA, USA). Blots were probed using the following primary antibodies: Total ERK (Cell Signaling, Danvers, MA, USA), pERK (Cell Signaling), Total AKT (Cell Signaling), pAKT (Cell Signaling), GSK3β (Cell Signaling), and cyclin D1 (Abcam) at a 1:1,000 dilution. As a control, an anti-GAPDH antibody (GeneTex, Irvine, CA, USA) was employed at a 1:100,000 dilution and γ-Tubulin (Invitrogen) 1:5,000. Densitometric analysis of blots was performed using the software ImageJ version 1.45 (National Institutes of Health, Bethesda, […], USA).

[2] = Apoptosis/necrosis assay (Annexin V–propidium iodide, flow cytometry); type: cell-based, human; conditions: human, MCF-10A cells, 24 h at IC50-24, flow cytometry
Experimental: Apoptosis and necrosis were determined using the Apoptosis/Necrosis Detection kit (Abcam, Cambridge, UK) according to the manufacturer’s instructions. In brief, approximately 500,000 cells were seeded in 6-well plates (Corning) for 24 h. […] Cells were harvested and collected by centrifugation. All the samples were analyzed in triplicate using flow cytometry equipment FACSCalibur instrument (BD Biosciences, San Jose, CA, USA) at […] and 575-nm emission. Data analysis was performed using the FlowJo software (Tree Star Inc., Ashland, OR, USA). All experiments were performed in triplicate.

| SMILES | reduction in pAKT [1] | reduction in pERK [1] | viability at 24 h [2] [%] |
| --- | --- | --- | --- |
| CN(CC(=O)NC1CCOc2ccccc21)Cc1cccc(Cl)c1 (centres unmarked) [C14, 2-[(3-chlorophenyl)-methyl-methyl-amino]-N-croman-4-yl-acetamide] | up to 60% | up to 70% |  |
| O=C(CN1CCN(c2cccc(Cl)c2)CC1)N[C@@H]1CCOc2ccccc21 [P8, 2-[4-(3-chlorophenyl)piperazin-1-yl]-N-[(4R)-chroman-4-yl]acetamide] | up to 70% | up to 70% | 94.3 |

From publication PMC10989073, “Antineoplastic effect of compounds C14 and P8 on TNBC and radioresistant TNBC cells by stabilizing the K-Ras4B^G13D/PDE6δ complex” (Frontiers in Oncology, 2024)
